# Measured values taken from US9018208B2, “Heterocycles as potassium channel modulators” (Icagen Inc., priority 2007, dated 2015).
# Tested on: SH-SY5Y M-currents (KCNQ2, KCNQ3 and KCNQ5)
# Experiment: SH-SY5Y native cell line FLIPR assay (voltage-sensitive dye DiBAC)
# Assay type: cell-based, mouse neuroblastoma, rat glioma hybrid cell line
# Conditions: FLIPR assay, SH-SY5Y native cell line; Table 1; read-out: SH-SY5Y EC50
# Excerpt: SH-SY5Y cells, a mouse neuroblastoma, rat glioma hybrid cell line, functionally express M-currents (Robbins et al., J. Physiol. 451: 159-85 (1992). SH-SY5Y M-currents are likely comprised, at least in part, of KCNQ2, KCNQ3 and KCNQ5, since these genes are reportedly robustly expressed in differentiated SH-SY5Y cells (Selyanko et al., J. Neurosci. 19(18): 7742-56 (1999); Schroeder et al., J. Biol. Chem. 275(31): 24089-95 (2000)) and KCNQ3 dominant-negative constructs reduce M-current density in these cells (Selyanko et al., J. Neurosci. 22(5): RC212 (2002).
# SH-SY5Y were maintained in DMEM (high glucose) supplemented with 10% fetal bovine serum, 0.05 mM pyridoxine, 0.1 mM hypoxanthine, 400 nM aminopterin, […], 50 μgml^−1 gentamycin and 10 mM HEPES, in an incubator at 37° C. with a humidified atmosphere of 5% CO2. Cells were plated in 96 well plates differentiated by addition of 10 μM PGE1 and 50 μM isomethylbutylxanthine to the growth media prior to study.
# Differentiated SH-SY5Y cells were loaded with voltage-sensitive dye by incubation in Earls Balanced Salt Solution (EBSS) containing […] DiBAC for 1 h. Following loading, drug solution containing […] DiBAC was added to each well. Changes in fluorescence were measured every 30 s for 25 min. The maximum change in fluorescence was measured and expressed as a percentage of the maximum response obtained in the presence of a positive control agent.
row,Compound,EC50
1,"Cc1cccc2nc(NC(=O)C(F)(F)F)cn12 [Compound 8, 2,2,2-trifluoro-N-(5-methylimidazo[1,2-a]pyridin-2-yl)acetamide]",3000 to 10000 nM
2,"Cc1cccc2nc(NC(=O)CC(C)(C)C)cn12 [Compound 9, 3,3-dimethyl-N-(5-methylimidazo[1,2-a]pyridin-2-yl)butanamide]",3000 to 10000 nM
3,"O=C(Nc1cn2cc(F)ccc2n1)C(F)(F)F [Compound 10, 2,2,2-trifluoro-N-(6-fluoroimidazo[1,2-a]pyridin-2-yl)acetamide]",3000 to 10000 nM
4,"O=C(Nc1nc2ccc(F)cn2c1I)C(F)(F)F [Compound 11, 2,2,2-trifluoro-N-(6-fluoro-3-iodoimidazo[1,2-a]pyridin-2-yl)acetamide]",3000 to 10000 nM
5,"O=C(Nc1cn2c(C(F)(F)F)cccc2n1)C(F)(F)F [Compound 12, 2,2,2-trifluoro-N-(5-(trifluoromethyl)imidazo[1,2-a]pyridin-2-yl)acetamide]",3000 to 10000 nM
6,"O=C(Cc1ccc(F)cc1)Nc1cn2c(C(F)(F)F)cccc2n1 [Compound 13, 2-(4-fluorophenyl)-N-(5-(trifluoromethyl)imidazo[1,2-a]pyridin-2-yl)acetamide]",3000 to 10000 nM
7,"CC(C)(C)CC(=O)Nc1nc2ccc(F)cn2c1C1CC1 [Compound 14, N-(3-cyclopropyl-6-fluoroimidazo[1,2-a]pyridin-2-yl)-3,3-dimethylbutanamide]",500 to 3000 nM
8,"CC(C)(C)CC(=O)Nc1nc2ccc(F)cn2c1CC(C)(C)C [Compound 15, N-(6-fluoro-3-neopentylimidazo[1,2-a]pyridin-2-yl)-3,3-dimethylbutanamide]",500 to 3000 nM
9,"CC(C)(C)CC(=O)Nc1nc2ccc(F)cn2c1Cc1ccc(F)cc1 [Compound 16, N-(6-fluoro-3-(4-fluorobenzyl)imidazo[1,2-a]pyridin-2-yl)-3,3-dimethylbutanamide]",< 500 nM
10,"CC(C)(C)Cc1c(NC(=O)Cc2ccc(F)cc2)nc2ccc(F)cn12 [Compound 17, N-(6-fluoro-3-neopentylimidazo[1,2-a]pyridin-2-yl)-2-(4-fluorophenyl) acetamide]",< 500 nM
11,"O=C(Cc1ccc(F)cc1)Nc1nc2ccc(F)cn2c1Cc1ccc(F)cc1 [Compound 18, N-(6-fluoro-3-(4-fluorobenzyl)imidazo[1,2-a]pyridin-2-yl)-2-(4-fluorophenyl)acetamide]",< 500 nM
12,"CC(C)(C)Cc1c(NC(=O)Cc2ccc(F)cc2)nc2ccc(C(F)(F)F)cn12 [Compound 21, 2-(4-fluorophenyl)-N-(3-neopentyl-6-(trifluoromethyl)imidazo[1,2-a]pyridin-2-yl)acetamide]",< 500 nM
13,"CC(C)(C)Cc1c(NC(=O)Cc2ccc(Oc3ccccc3)cc2)nc2ccc(C(F)(F)F)cn12 [Compound 22, N-(3-neopentyl-6-(trifluoromethyl)imidazo[1,2-a]pyridin-2-yl)-2-(4-phenoxyphenyl)acetamide]",< 500 nM
14,"CC(C)(C)Cc1c(NC(=O)Cc2cccc(OC(F)(F)F)c2)nc2ccc(C(F)(F)F)cn12 [Compound 25, N-(3-neopentyl-6-(trifluoromethyl)imidazo[1,2-a]pyridin-2-yl)-2-(3-(trifluoromethoxy)phenyl)acetamide]",< 500 nM
15,"CC(C)(C)Cc1c(NC(=O)Cc2ccc(OC(F)(F)F)cc2)nc2ccc(C(F)(F)F)cn12 [Compound 26, N-(3-neopentyl-6-(trifluoromethyl)imidazo[1,2-a]pyridin-2-yl)-2-(4-(trifluoromethoxy)phenyl)acetamide]",< 500 nM
16,"CC(C)(C)Cc1c(NC(=O)Cc2ccc(Cl)cc2)nc2ccc(C(F)(F)F)cn12 [Compound 27, 2-(4-chlorophenyl)-N-(3-neopentyl-6-(trifluoromethyl)imidazo[1,2-a]pyridin-2-yl)acetamide]",< 500 nM
17,"CC(C)(C)CC(=O)Nc1nc2ccc(F)cn2c1Cc1ccc(C(F)(F)F)cc1 [Compound 28, N-(6-fluoro-3-(4-(trifluoromethyl)benzyl)imidazo[1,2-a]pyridin-2-yl)-3,3-dimethylbutanamide]",< 500 nM

row,Compound,EC50
1,"CC(CC(=O)Nc1nc2ccc(F)cn2c1Cc1ccc(C(F)(F)F)cc1)C(F)(F)F (centres unmarked) [Compound 29, 4,4,4-trifluoro-N-(6-fluoro-3-(4-(trifluoromethyl)benzyl)imidazo[1,2-a]pyridin-2-yl)-3-methylbutanamide]",< 500 nM
2,"CC(C)C(C)C(=O)Nc1nc2ccc(F)cn2c1Cc1ccc(C(F)(F)F)cc1 (centres unmarked) [Compound 30, N-(6-fluoro-3-(4-(trifluoromethyl)benzyl)imidazo[1,2-a]pyridin-2-yl)-2,3-dimethylbutanamide]",500 to 3000 nM
3,"CC(C)CCc1c(NC(=O)CC(C)(C)C)nc2ccc(C(F)(F)F)cn12 [Compound 31, N-(3-isopentyl-6-(trifluoromethyl)imidazo[1,2-a]pyridin-2-yl)-3,3-dimethylbutanamide]",< 500 nM
4,"CC(C)(C)CC(=O)Nc1nc2ccc(C(F)(F)F)cn2c1C1CCCCC1 [Compound 33, N-(3-cyclohexyl-6-(trifluoromethyl)imidazo[1,2-a]pyridin-2-yl)-3,3-dimethylbutanamide]",< 500 nM
5,"CC(C)(C)Cc1c(NC(=O)CC2(C)CCCC2)nc2ccc(C(F)(F)F)cn12 [Compound 34, 2-(1-methylcyclopentyl)-N-(3-neopentyl-6-(trifluoromethyl)imidazo[1,2-a]pyridin-2-yl)acetamide]",< 500 nM
6,"CC(C)(C)Cc1c(NC(=O)Cc2cccc(Cl)c2)nc2ccc(C(F)(F)F)cn12 [Compound 35, 2-(3-chlorophenyl)-N-(3-neopentyl-6-(trifluoromethyl)imidazo[1,2-a]pyridin-2-yl)acetamide]",< 500 nM
7,"CC(C)CCc1c(NC(=O)Cc2ccccc2)nc2ccc(C(F)(F)F)cn12 [Compound 36, N-(3-isopentyl-6-(trifluoromethyl)imidazo[1,2-a]pyridin-2-yl)-2-phenylacetamide]",< 500 nM
8,"O=C(Cc1ccccc1)Nc1nc2ccc(C(F)(F)F)cn2c1CC1CCCCC1 [Compound 37, N-(3-(cyclohexylmethyl)-6-(trifluoromethyl)imidazo[1,2-a]pyridin-2-yl)-2-phenylacetamide]",< 500 nM
9,"CC(C)CCc1c(NC(=O)Cc2ccc(F)cc2)nc2ccc(C(F)(F)F)cn12 [Compound 39, 2-(4-fluorophenyl)-N-(3-isopentyl-6-(trifluoromethyl)imidazo[1,2-a]pyridin-2-yl)acetamide]",< 500 nM
10,"O=C(Cc1ccc(F)cc1)Nc1nc2ccc(C(F)(F)F)cn2c1CC1CCCCC1 [Compound 40, N-(3-(cyclohexylmethyl)-6-(trifluoromethyl)imidazo[1,2-a]pyridin-2-yl)-2-(4-fluorophenyl)acetamide]",< 500 nM
11,"O=C(Cc1ccc(F)cc1)Nc1nc2ccc(C(F)(F)F)cn2c1C1CCCCC1 [Compound 41, N-(3-cyclohexyl-6-(trifluoromethyl)imidazo[1,2-a]pyridin-2-yl)-2-(4-fluorophenyl)acetamide]",< 500 nM
12,"CC(C)CCc1c(NC(=O)Cc2cccc(Cl)c2)nc2ccc(C(F)(F)F)cn12 [Compound 42, 2-(3-chlorophenyl)-N-(3-isopentyl-6-(trifluoromethyl)imidazo[1,2-a]pyridin-2-yl)acetamide]",< 500 nM
13,"O=C(Cc1cccc(Cl)c1)Nc1nc2ccc(C(F)(F)F)cn2c1CC1CCCCC1 [Compound 43, 2-(3-chlorophenyl)-N-(3-(cyclohexylmethyl)-6-(trifluoromethyl)imidazo[1,2-a]pyridin-2-yl)acetamide]",< 500 nM
14,"O=C(Cc1cccc(Cl)c1)Nc1nc2ccc(C(F)(F)F)cn2c1C1CCCCC1 [Compound 44, 2-(3-chlorophenyl)-N-(3-cyclohexyl-6-(trifluoromethyl)imidazo[1,2-a]pyridin-2-yl)acetamide]",< 500 nM
15,"CC(C)CCc1c(NC(=O)CC2(C)CCCC2)nc2ccc(C(F)(F)F)cn12 [Compound 45, N-(3-isopentyl-6-(trifluoromethyl)imidazo[1,2-a]pyridin-2-yl)-2-(1-methylcyclopentyl)acetamide]",< 500 nM
16,"CC1(CC(=O)Nc2nc3ccc(C(F)(F)F)cn3c2CC2CCCCC2)CCCC1 [Compound 46, N-(3-(cyclohexylmethyl)-6-(trifluoromethyl)imidazo[1,2-a]pyridin-2-yl)-2-(1-methylcyclopentyl)acetamide]",< 500 nM
17,"CC1(CC(=O)Nc2nc3ccc(C(F)(F)F)cn3c2C2CCCCC2)CCCC1 [Compound 47, N-(3-cyclohexyl-6-(trifluoromethyl)imidazo[1,2-a]pyridin-2-yl)-2-(1-methylcyclopentyl)acetamide]",< 500 nM

# Same assay, conditions: FLIPR assay, SH-SY5Y native cell line; Table 2; read-out: SH-SY5Y EC50
row,Compound,EC50
1,"2-(3,4-dichlorophenyl)-N-(6-fluoro-3-(4-fluorophenyl)imidazo yl)acetamide [Compound 142]",< 500 nM
2,2-(3-chlorophenyl)-N-(6-fluoro-3-(4-(trifluoromethoxy)phenyl)imidazo yl)acetamide [Compound 239],< 500 nM
3,3-tert-butoxy-N-(6-fluoro-3-(4-(trifluoromethoxy)phenyl)imidazo yl)propanamide [Compound 261],< 500 nM

# Same assay, conditions: read-out: SH-SY5Y_EC50
row,Compound,EC50
1,"CC(C)(C)CC(=O)Nc1nc2ccc(F)cn2c1C1CC1 [Compound 14, N-(3-cyclopropyl-6-fluoroimidazo[1,2-a]pyridin-2-yl)-3,3-dimethylbutanamide]",2550 nM
